We go through 7 compounds from ChEMBL document CHEMBL1909046, “DrugMatrix in vitro pharmacology data”.

The target in series [1] is Estrogen receptor beta (Homo sapiens, UniProt Q92731). The conditions noted are these: sf9. Also: in other assays of this panel Not Active means under 50% inhibition at 10 µM.
Series [2] is described as follows: DRUGMATRIX: Glutamate, AMPA radioligand binding (ligand: [3H] AMPA). Format: cell membranes, Rattus norvegicus, Wistar, Cerebral cortex, Membrane. The conditions noted are these: Not Active = under 50% inhibition at 10 µM.
A short description of series [3]: DRUGMATRIX: Calcium Channel Type L, Benzothiazepine radioligand binding (ligand: [3H] Diltiazem). Format: cell membranes, Rattus norvegicus, Wistar, Brain, Membrane. The conditions noted are these: Not Active = under 50% inhibition at 10 µM.
In series [4] the target is Cytochrome P450 2D6 (Homo sapiens, UniProt P10635). The conditions noted are these: bti-tn-5b1-4. Also: in other assays of this panel Not Active means under 50% inhibition at 10 µM.
The target in series [5] is T1, Cytochrome P450 1A2 (Homo sapiens, UniProt P05177). Also: in other assays of this panel Not Active means under 50% inhibition at 10 µM.
T1 sequence (P05177 whole entry): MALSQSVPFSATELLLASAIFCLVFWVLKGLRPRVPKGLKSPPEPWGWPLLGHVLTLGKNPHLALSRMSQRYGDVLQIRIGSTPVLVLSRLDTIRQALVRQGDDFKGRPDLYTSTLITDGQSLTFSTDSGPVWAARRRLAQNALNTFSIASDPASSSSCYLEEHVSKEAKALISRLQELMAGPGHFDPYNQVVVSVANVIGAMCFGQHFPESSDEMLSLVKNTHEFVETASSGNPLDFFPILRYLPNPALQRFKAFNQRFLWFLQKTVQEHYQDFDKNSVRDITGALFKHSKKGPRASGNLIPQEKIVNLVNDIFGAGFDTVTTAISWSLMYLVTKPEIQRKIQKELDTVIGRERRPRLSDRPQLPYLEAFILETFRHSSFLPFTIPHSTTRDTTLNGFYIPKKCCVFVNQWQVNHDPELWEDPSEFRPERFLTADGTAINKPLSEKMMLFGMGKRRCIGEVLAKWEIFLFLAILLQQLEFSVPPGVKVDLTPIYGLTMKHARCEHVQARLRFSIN
Particulars: bti-tn-5b1-4.

Series [6] in a line: DRUGMATRIX: Leukotriene, BLT (LTB4) radioligand binding (ligand: [3H]LTB4). Format: cell membranes, Membrane. The conditions noted are these: u-937; Not Active = under 50% inhibition at 10 µM.
Series [7] addresses Carbonic anhydrase 2 (Homo sapiens, UniProt P00918). Nature of the series: DRUGMATRIX: Carbonic Anhydrase II enzyme inhibition (substrate: 4-Nitrophenyl acetate (4-NPA)). Format: tissue-based, Erythrocyte. Particulars: erythrocyte; Not Active = under 50% inhibition at 10 µM.
Series [8] addresses T2, Cysteinyl leukotriene receptor 1 (Homo sapiens, UniProt Q9Y271).
T2 sequence (Q9Y271 whole entry): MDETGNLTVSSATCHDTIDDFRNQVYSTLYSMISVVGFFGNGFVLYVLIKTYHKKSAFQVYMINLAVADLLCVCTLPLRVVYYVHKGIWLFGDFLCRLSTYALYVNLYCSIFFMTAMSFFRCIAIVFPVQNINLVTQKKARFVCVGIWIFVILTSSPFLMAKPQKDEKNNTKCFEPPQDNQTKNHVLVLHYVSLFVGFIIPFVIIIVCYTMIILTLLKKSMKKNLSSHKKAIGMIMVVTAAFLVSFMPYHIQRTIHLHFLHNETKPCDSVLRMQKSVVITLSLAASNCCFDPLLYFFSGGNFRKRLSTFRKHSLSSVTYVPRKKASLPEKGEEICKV
Format: cell membranes, CHO-K1, Membrane. Particulars: cho-k1.

Series [9] addresses cGMP-specific 3',5'-cyclic phosphodiesterase (Homo sapiens, UniProt O76074). Nature of the series: DRUGMATRIX: Phosphodiesterase PDE5 enzyme inhibition (substrate: [3H]cGMP + cGMP). Particulars: platelet; Not Active = under 50% inhibition at 10 µM. It counts as tissue-based, Platelet.
Series [10] concerns the target T3, Amine oxidase [flavin-containing] A (Homo sapiens, UniProt P21397).
T3 sequence (P21397 whole entry): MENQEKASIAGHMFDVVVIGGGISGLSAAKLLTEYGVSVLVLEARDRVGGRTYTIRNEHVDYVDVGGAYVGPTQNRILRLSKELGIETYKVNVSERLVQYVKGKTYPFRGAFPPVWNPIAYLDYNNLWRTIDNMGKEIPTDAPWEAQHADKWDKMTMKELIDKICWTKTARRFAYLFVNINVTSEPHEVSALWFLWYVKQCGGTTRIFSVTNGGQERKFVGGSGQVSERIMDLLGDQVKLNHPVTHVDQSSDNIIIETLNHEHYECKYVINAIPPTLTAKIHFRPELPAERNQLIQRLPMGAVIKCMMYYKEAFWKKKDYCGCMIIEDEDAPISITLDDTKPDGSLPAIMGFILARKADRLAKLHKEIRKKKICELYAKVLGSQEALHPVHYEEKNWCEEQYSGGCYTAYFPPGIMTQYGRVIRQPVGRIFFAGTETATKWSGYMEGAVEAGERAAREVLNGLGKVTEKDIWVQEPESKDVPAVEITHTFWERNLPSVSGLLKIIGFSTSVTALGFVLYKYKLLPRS
The experiment in a line: DRUGMATRIX: Monoamine Oxidase MAO-A enzyme inhibition (substrate: Kynuramine). On the set-up: species or system BTI-TN-5B1-4. Particulars: bti-tn-5b1-4; Not Active = under 50% inhibition at 10 µM.

Series [11] concerns the target T4, Neuropeptide Y receptor type 1 (Homo sapiens, UniProt P25929). Also: in other assays of this panel Not Active means under 50% inhibition at 10 µM.
T4 sequence (P25929 whole entry): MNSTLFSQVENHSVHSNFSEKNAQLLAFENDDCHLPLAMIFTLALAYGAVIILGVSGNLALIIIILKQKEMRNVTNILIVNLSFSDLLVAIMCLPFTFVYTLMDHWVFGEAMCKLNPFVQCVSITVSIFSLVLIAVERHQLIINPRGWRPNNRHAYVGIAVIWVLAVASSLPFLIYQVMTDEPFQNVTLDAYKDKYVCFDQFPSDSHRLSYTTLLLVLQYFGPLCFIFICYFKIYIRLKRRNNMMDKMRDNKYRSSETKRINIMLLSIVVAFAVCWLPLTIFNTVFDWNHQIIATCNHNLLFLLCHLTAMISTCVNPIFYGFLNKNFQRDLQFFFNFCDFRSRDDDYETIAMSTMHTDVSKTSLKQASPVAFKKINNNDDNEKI
It counts as cell membranes, Membrane. The conditions noted are these: sk-n-mc.

The target of series [12] is Protein kinase C alpha type (Homo sapiens, UniProt P17252). It counts as cell-based. The conditions noted are these: sf9.

Cytochrome P450 2D6, sequence (P10635 whole entry): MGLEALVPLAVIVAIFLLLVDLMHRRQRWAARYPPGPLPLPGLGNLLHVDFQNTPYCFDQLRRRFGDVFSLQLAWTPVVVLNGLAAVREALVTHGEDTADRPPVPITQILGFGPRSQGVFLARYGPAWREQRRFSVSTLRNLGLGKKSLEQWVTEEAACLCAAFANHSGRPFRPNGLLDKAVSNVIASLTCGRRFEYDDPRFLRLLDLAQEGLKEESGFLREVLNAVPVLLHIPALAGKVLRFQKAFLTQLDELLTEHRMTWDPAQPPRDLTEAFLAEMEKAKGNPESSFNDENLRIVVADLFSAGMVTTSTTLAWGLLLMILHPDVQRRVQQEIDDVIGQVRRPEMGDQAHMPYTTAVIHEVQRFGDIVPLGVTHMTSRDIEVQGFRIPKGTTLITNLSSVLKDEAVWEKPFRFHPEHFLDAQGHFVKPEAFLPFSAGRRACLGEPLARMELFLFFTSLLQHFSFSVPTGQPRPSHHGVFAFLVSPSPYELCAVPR
Estrogen receptor beta, sequence (Q92731 whole entry): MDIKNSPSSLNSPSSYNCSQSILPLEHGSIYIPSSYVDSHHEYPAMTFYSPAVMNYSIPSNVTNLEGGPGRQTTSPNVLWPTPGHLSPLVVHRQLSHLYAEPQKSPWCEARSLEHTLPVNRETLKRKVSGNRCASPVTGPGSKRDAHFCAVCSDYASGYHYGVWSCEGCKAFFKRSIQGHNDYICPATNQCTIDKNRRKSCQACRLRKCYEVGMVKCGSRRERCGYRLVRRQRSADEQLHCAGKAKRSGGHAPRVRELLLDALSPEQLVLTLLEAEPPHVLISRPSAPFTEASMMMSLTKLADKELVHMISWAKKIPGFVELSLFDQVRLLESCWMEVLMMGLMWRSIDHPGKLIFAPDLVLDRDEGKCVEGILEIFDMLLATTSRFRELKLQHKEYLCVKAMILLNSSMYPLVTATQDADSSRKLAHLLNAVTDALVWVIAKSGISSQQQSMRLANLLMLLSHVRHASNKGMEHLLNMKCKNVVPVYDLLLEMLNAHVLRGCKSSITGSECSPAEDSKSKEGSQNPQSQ

Usually IC50 stands for the midpoint of a concentration-inhibition curve. Broadly, the Ki is a measure of affinity in units of concentration, obtained from inhibition or displacement. Take `COc1ccc2cc(CC(=O)O)ccc2c1`: the IC50 entry in [1], in series [2], in [3], in series [4], in series [5] and in [6] was “Not Active” each time. Moreover, the IC50 entry in series [7], in [8], in series [9], in series [10], in series [11] and in [12] was “Not Active” in each case. Also, the Ki entry in series [2], in series [3], in series [4], in series [5] and in [6] was “Not Active” each time.
Turning to `C=C1C(=O)O[C@@H]2C3O[C@]3(C)CC/C=C(\C)CC[C@@H]12` (stereo partly drawn), the concentration for half-maximal inhibition (IC50) result in series [1], in series [2], in [3], in series [4], in [5] and in [6] was “Not Active” each time. Besides, the IC50 result in series [7], in series [8], in [9], in series [10], in series [11] and in [12] was “Not Active” in each case. For the same compound, the Ki entry in series [2], in series [3], in series [4], in series [5] and in series [6] was “Not Active” each time.
Regarding `CC(/C=C1\SC(=S)N(CC(=O)O)C1=O)=C\c1ccccc1`, the IC50 entry in series [1], in series [2], in series [3], in series [4], in series [5] and in series [6] was “Not Active” throughout. Further, the half-maximal inhibitory concentration (IC50) entry in series [7], in [8], in [9], in [10], in series [11] and in series [12] was “Not Active” in each case. The Ki entry in series [2], in series [3], in [4], in series [5] and in series [6] was “Not Active” in each case.
For the compound `CCCCCCCCCc1ccc(O)cc1` [4-NONYLPHENOL], the IC50 entry in series [1], in series [2], in series [3], in series [4], in [5] and in series [6] was “Not Active” each time. Also, the IC50 result in [7], in series [8], in series [9], in series [10], in [11] and in series [12] was “Not Active” each time. Also, the Ki result in [2], in series [3], in [4], in series [5] and in series [6] was “Not Active” in each case.
For `CC1(C)S[C@@H]2[C@H](NC(=O)[C@H](N)c3ccc(O)cc3)C(=O)N2[C@H]1C(=O)O` [AMOXICILLIN], the IC50 result in series [1], in [2], in series [3], in series [4], in series [6] and in [7] was “Not Active” each time. In addition, the IC50 entry in series [8], in [9], in series [10], in [11] and in series [12] was “Not Active” each time. The Ki entry in series [2], in [3], in series [4] and in series [6] was “Not Active” each time.
In the case of `NS(=O)(=O)c1cc2c(cc1Cl)NCNS2(=O)=O` [HYDROCHLOROTHIAZIDE], the half-inhibitory concentration (IC50) result in series [1], in series [2], in series [3], in [4], in [6] and in series [7] was “Not Active” in each case. Further, the IC50 result in series [8], in series [9], in series [10], in [11] and in series [12] was “Not Active” throughout. Further, the Ki result in [2], in [3], in series [4] and in [6] was “Not Active” throughout.
`CNCCC=C1c2ccccc2CCc2ccccc21` [NORTRIPTYLINE]: the IC50 entry is “Not Active” in series [1]; “Not Active” in [2]; 2800 nM in [3] (read-out: IC50); “Not Active” in series [5]; “Not Active” in [6]; “Not Active” in [7]. The IC50 result in series [8], in series [9], in series [10], in [11] and in [12] was “Not Active” each time. Moreover, the Ki result in series [2] was “Not Active”; in series [3] (read-out: Ki), 2490 nM; in series [5], “Not Active”; in series [6], “Not Active”.
